Test system: 817829-284-R-J1-PDC complex spheroid viability
Assay: Anticancer human tumor 817829-284-R-J1-PDC patient-derived colon adenocarcinoma cell line growth inhibition [POLQ]
Conditions: for IC50: curve of first compound; for viability, T/C: stronger effect = lower value
Method in brief: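 Patient-derived tumour cells were co-cultured with HUVEC and mesenchymal stem cells as multicellular spheroids at 37 °C. They were treated with POLQ inhibitors (novobiocin, ART-558, RP6685) alone or combined with other agents. Top concentrations were at or near clinical Cmax (otherwise 10 microM; SN-38 at 1 microM), decreasing in half-log steps.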

[1] = second compound 0.0316 µM, first compound 0.0316 µM
[2] = second compound 0.0316 µM, first compound 0.1 µM
[3] = second compound 0.0316 µM, first compound 0.316 µM
[4] = second compound 0.0316 µM, first compound 1 µM
[5] = second compound 0.0316 µM, first compound 3.16 µM
[6] = second compound 0.0316 µM, first compound 10 µM
[7] = second compound 0.1 µM, first compound 0.0316 µM
[8] = second compound 0.1 µM, first compound 0.1 µM
[9] = second compound 0.1 µM, first compound 0.316 µM
[10] = second compound 0.1 µM, first compound 1 µM
[11] = second compound 0.1 µM, first compound 3.16 µM
[12] = second compound 0.1 µM, first compound 10 µM
[13] = second compound 0.316 µM, first compound 0.0316 µM
[14] = second compound 0.316 µM, first compound 0.1 µM
[15] = second compound 0.316 µM, first compound 0.316 µM
[16] = second compound 0.316 µM, first compound 1 µM
[17] = second compound 0.316 µM, first compound 3.16 µM
[18] = second compound 0.316 µM, first compound 10 µM
[19] = second compound 1 µM, first compound 0.0316 µM
[20] = second compound 1 µM, first compound 0.1 µM
[21] = second compound 1 µM, first compound 0.316 µM
[22] = second compound 1 µM, first compound 1 µM
[23] = second compound 1 µM, first compound 3.16 µM
[24] = second compound 1 µM, first compound 10 µM
[25] = second compound 3.16 µM, first compound 0.0316 µM
[26] = second compound 3.16 µM, first compound 0.1 µM
[27] = second compound 3.16 µM, first compound 0.316 µM
[28] = second compound 3.16 µM, first compound 1 µM
[29] = second compound 3.16 µM, first compound 3.16 µM
[30] = second compound 3.16 µM, first compound 10 µM
[31] = second compound 10 µM, first compound 0.0316 µM
[32] = second compound 10 µM, first compound 0.1 µM
[33] = second compound 10 µM, first compound 0.316 µM
[34] = second compound 10 µM, first compound 1 µM
[35] = second compound 10 µM, first compound 3.16 µM
[36] = second compound 10 µM, first compound 10 µM
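Note: spheroids exposed to compounds for 7 days.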
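Throughout, for viability, T/C: 100% = DMSO vehicle-treated spheroids.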

## CCc1cc2c(N3CCc4c(cc(Cn5ccnc5)cc4-c4cn(C)nc4C(F)(F)F)C3=O)ccnc2c(OC)n1 + Nc1ccc(C#CCN(C(=O)Cc2ncc(C(F)(F)F)cc2C(F)(F)F)c2ccc(F)cc2)nn1
Second compound 0.0316 µM
  IC50: 2590 nM
Second compound 0.1 µM
  IC50: 2410 nM
Second compound 0.316 µM
  IC50: 2610 nM
Second compound 1 µM
  IC50: 2330 nM
Second compound 3.16 µM
  IC50: 3440 nM
Second compound 10 µM
  IC50: 2630 nM
[1]
  viability, T/C: 84.2%
[2]
  viability, T/C: 77.9%
[3]
  viability, T/C: 84.1%
[4]
  viability, T/C: 76.3%
[5]
  viability, T/C: 44.5%
[6]
  viability, T/C: 29.7%
[7]
  viability, T/C: 83.7%
[8]
  viability, T/C: 82.7%
[9]
  viability, T/C: 78.2%
[10]
  viability, T/C: 67.9%
[11]
  viability, T/C: 44%
[12]
  viability, T/C: 37.5%
[13]
  viability, T/C: 86.3%
[14]
  viability, T/C: 74.6%
[15]
  viability, T/C: 64%
[16]
  viability, T/C: 64.8%
[17]
  viability, T/C: 49%
[18]
  viability, T/C: 34%
[19]
  viability, T/C: 83.6%
[20]
  viability, T/C: 70.5%
[21]
  viability, T/C: 74.8%
[22]
  viability, T/C: 60.7%
[23]
  viability, T/C: 44.8%
[24]
  viability, T/C: 31%
[25]
  viability, T/C: 97.5%
[26]
  viability, T/C: 95%
[27]
  viability, T/C: 72.7%
[28]
  viability, T/C: 68.8%
[29]
  viability, T/C: 52.1%
[30]
  viability, T/C: 33.9%
[31]
  viability, T/C: 83.8%
[32]
  viability, T/C: 84%
[33]
  viability, T/C: 69.7%
[34]
  viability, T/C: 67.3%
[35]
  viability, T/C: 45.5%
[36]
  viability, T/C: 31.4%

## CC1COCCN1c1cc(-c2ccnn2C)c2ccnc(-c3ccn[nH]3)c2n1 (centres undefined) + COC1C(OC(N)=O)C(O)C(Oc2ccc3c(O)c(NC(=O)c4ccc(O)c(CC=C(C)C)c4)c(=O)oc3c2C)OC1(C)C
Second compound 0.0316 µM
  IC50: < 31.6 nM
Second compound 0.1 µM
  IC50: < 31.6 nM
Second compound 0.316 µM
  IC50: < 31.6 nM
Second compound 1 µM
  IC50: < 31.6 nM
Second compound 3.16 µM
  IC50: < 31.6 nM
Second compound 10 µM
  IC50: < 31.6 nM
[1]
  viability, T/C: 30.4%
[2]
  viability, T/C: 13.2%
[3]
  viability, T/C: 5.49%
[4]
  viability, T/C: 4.46%
[5]
  viability, T/C: 3.26%
[6]
  viability, T/C: 3.12%
[7]
  viability, T/C: 38.1%
[8]
  viability, T/C: 12.8%
[9]
  viability, T/C: 4.68%
[10]
  viability, T/C: 4.07%
[11]
  viability, T/C: 3.1%
[12]
  viability, T/C: 3.09%
[13]
  viability, T/C: 38.2%
[14]
  viability, T/C: 11.9%
[15]
  viability, T/C: 5.3%
[16]
  viability, T/C: 4.05%
[17]
  viability, T/C: 3.4%
[18]
  viability, T/C: 2.6%
[19]
  viability, T/C: 26.4%
[20]
  viability, T/C: 11.9%
[21]
  viability, T/C: 5.6%
[22]
  viability, T/C: 4.46%
[23]
  viability, T/C: 3.01%
[24]
  viability, T/C: 2.34%
[25]
  viability, T/C: 42.2%
[26]
  viability, T/C: 11%
[27]
  viability, T/C: 7.02%
[28]
  viability, T/C: 4.4%
[29]
  viability, T/C: 2.97%
[30]
  viability, T/C: 2.67%
[31]
  viability, T/C: 47.5%
[32]
  viability, T/C: 13.4%
[33]
  viability, T/C: 5.44%
[34]
  viability, T/C: 4.22%
[35]
  viability, T/C: 3.19%
[36]
  viability, T/C: 2.65%
